How the values were obtained:
Type in all cases: cell-based
[1] = tested on: E. coli DH5α; experiment: Antibacterial activity: MIC and growth curve against E. coli DH5α in 96-well plate; conditions: minimal inhibitory concentration against E. coli DH5α; 96-well plate, 5×10^5 CFU/mL, 37° C., judged after 8 h
In short: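 Log-phase bacteria (OD600 ~0.5) resuspended in LB at 5×10^5 CFU/mL, exposed to recombinant protein at 50, 25, 12.5 μg/mL final in triplicate, 37 °C shaking at 175 rpm. OD600 read every 30 min; MIC is lowest concentration showing no growth.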

[2] = tested on: E. coli BL21; experiment: MIC against Gram-negative bacteria: E. coli BL21; conditions: 5×10^5 CFU/mL
In short: (§1)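 Bacteria grown in LB at 37° C to McFarland 0.5, resuspended and seeded at 5×10^5 CFU/mL in 96-well plates. Purified human EGF-domain proteins two-fold serially diluted, triplicate wells; cultured at 37° C, shaking 175 rpm. MIC = lowest protein concentration with no growth.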

[3] = tested on: Pseudomonas aeruginosa; experiment: MIC against Gram-negative bacteria: Pseudomonas aeruginosa; conditions: 5×10^5 CFU/mL
In short: as §1

[4] = tested on: Klebsiella pneumonia; experiment: MIC against Gram-negative bacteria: Klebsiella pneumonia; conditions: 5×10^5 CFU/mL
In short: as §1

[5] = tested on: Enterobacter cloacae; experiment: MIC against Gram-negative bacteria: Enterobacter cloacae; conditions: 5×10^5 CFU/mL
In short: as §1

[6] = tested on: Aeromonas hydrophila; experiment: MIC against Gram-negative bacteria: Aeromonas hydrophila; conditions: 5×10^5 CFU/mL
In short: as §1

[7] = tested on: Citrobacter diversus; experiment: MIC against Gram-negative bacteria: Citrobacter diversus; conditions: 5×10^5 CFU/mL
In short: as §1

[8] = tested on: Moraxella catarrhalis; experiment: MIC against Gram-negative bacteria: Moraxella catarrhalis; conditions: 5×10^5 CFU/mL
In short: as §1

[9] = tested on: Proteus mirabilis; experiment: MIC against Gram-negative bacteria: Proteus mirabilis; conditions: 5×10^5 CFU/mL
In short: as §1

[10] = tested on: Proteus vulgaris; experiment: MIC against Gram-negative bacteria: Proteus vulgaris; conditions: 5×10^5 CFU/mL
In short: as §1

[11] = tested on: Serratia marcescens; experiment: MIC against Gram-negative bacteria: Serratia marcescens; conditions: 5×10^5 CFU/mL
In short: as §1

[12] = E. coli BL21, 96-well plate, 37° C., 10 h
[13] = Pseudomonas aeruginosa, 96-well plate, 37° C., 10 h
[14] = Klebsiella pneumonia, 96-well plate, 37° C., 10 h
[15] = Enterobacter cloacae, 96-well plate, 37° C., 10 h
[16] = Aeromonas hydrophila, 96-well plate, 37° C., 10 h
[17] = Citrobacter diversus, 96-well plate, 37° C., 10 h
[18] = Moraxella catarrhalis, 96-well plate, 37° C., 10 h
[19] = Proteus mirabilis, 96-well plate, 37° C., 10 h
[20] = Proteus vulgaris, 96-well plate, 37° C., 10 h
[21] = Serratia marcescens, 96-well plate, 37° C., 10 h
[22] = E. coli BL21, 10 h cultivation at 37° C.
[23] = P. aeruginosa, 10 h cultivation at 37° C.
[24] = K. pneumonia, 10 h cultivation at 37° C.
[25] = E. cloacae, 10 h cultivation at 37° C.
[26] = A. hydrophila, 10 h cultivation at 37° C.
[27] = C. diversus, 10 h cultivation at 37° C.
[28] = M. catarrhalis, 10 h cultivation at 37° C.
[29] = P. mirabilis, 10 h cultivation at 37° C.
[30] = P. vulgaris, 10 h cultivation at 37° C.
[31] = S. marcescens, 10 h cultivation at 37° C.
[32] = 10 h cultivation at 37° C., two-fold serial dilution

PRT1330 (VVDFCKQDNGGCAKVARCSQKGTKVSCSCQKGYKGDGHSCT; listed as Homo sapiens)
MIC [1]: 12.5 µg/mL | MIC against E. coli BL21 [2, 12]: 12.5 µg/mL | MIC against P. aeruginosa [3, 13]: 12.5 µg/mL | MIC against K. pneumonia [4, 14]: 12.5 µg/mL | MIC against E. cloacae [5, 15]: 50 µg/mL | MIC against A. hydrophila [6, 16]: 12.5 µg/mL | MIC against C. diversus [7, 17]: 50 µg/mL | MIC against M. catarrhalis [8, 18]: 25 µg/mL | MIC against P. mirabilis [9, 19]: 12.5 µg/mL | MIC against P. vulgaris [10, 20]: 25 µg/mL | MIC against S. marcescens [11, 21]: 50 µg/mL

PRT1289 (LAEPCRGLQCLHGHCQASGTKGAHCVCDPGFSGELCE; listed as Homo sapiens)
MIC [1]: 12.5 µg/mL | MIC against E. coli BL21 [2, 12]: 12.5 µg/mL | MIC against P. aeruginosa [3, 13]: 12.5 µg/mL | MIC against K. pneumonia [4, 14]: 12.5 µg/mL | MIC against E. cloacae [5, 15]: 25 µg/mL | MIC against A. hydrophila [6, 16]: 12.5 µg/mL | MIC against C. diversus [7, 17]: 12.5 µg/mL | MIC against M. catarrhalis [8, 18]: 50 µg/mL | MIC against P. mirabilis [9, 19]: 12.5 µg/mL | MIC against P. vulgaris [10, 20]: 50 µg/mL | MIC against S. marcescens [11, 21]: 25 µg/mL

PRT833 (CEANNGGCSHGCSHTSAGPLCTCPRGYELDTDQRTC; listed as Homo sapiens)
MIC [1]: 12.5 µg/mL | MIC (μg/mL) E. coli BL21 [2, 22]: 25 µg/mL | MIC (μg/mL) P. aeruginosa [3, 23]: 12.5 µg/mL | MIC (μg/mL) K. pneumonia [4, 24]: 12.5 µg/mL | MIC (μg/mL) E. cloacae [5, 25]: 50 µg/mL | MIC (μg/mL) A. hydrophila [6, 26]: 12.5 µg/mL | MIC (μg/mL) C. diversus [7, 27]: 50 µg/mL | MIC (μg/mL) M. catarrhalis [8, 28]: 12.5 µg/mL | MIC (μg/mL) P. mirabilis [9, 29]: 25 µg/mL | MIC (μg/mL) P. vulgaris [10, 30]: 50 µg/mL | MIC (μg/mL) S. marcescens [11, 31]: 12.5 µg/mL

PRT413 (DVNECITGSHSCRLGESCINTVGSFRCQRDSSCGTGYELTEDNSCK; listed as Homo sapiens)
MIC [1]: 12.5 µg/mL | MIC [2, 22]: 12.5 µg/mL | MIC [3, 23]: 12.5 µg/mL | MIC [4, 24]: 50 µg/mL | MIC [5, 25]: 12.5 µg/mL | MIC [6, 26]: 50 µg/mL | MIC [7, 27]: 12.5 µg/mL | MIC [8, 28]: 50 µg/mL | MIC [9, 29]: 12.5 µg/mL | MIC [10, 30]: 12.5 µg/mL | MIC [11, 31]: 12.5 µg/mL

PRT1130 (DDCSSHCDLAHGCCAPDGSCRCDPGWEGLHCE; listed as Homo sapiens)
MIC [1]: 12.5 µg/mL | MIC E. coli BL21 [2, 32]: 12.5 µg/mL | MIC P. aeruginosa [3, 32]: 50 µg/mL | MIC K. pneumonia [4, 32]: 12.5 µg/mL | MIC E. cloacae [5, 32]: 50 µg/mL | MIC A. hydrophila [6, 32]: 12.5 µg/mL | MIC C. diversus [7, 32]: 25 µg/mL | MIC M. catarrhalis [8, 32]: 50 µg/mL | MIC P. mirabilis [9, 32]: 25 µg/mL | MIC P. vulgaris [10, 32]: 12.5 µg/mL | MIC S. marcescens [11, 32]: 25 µg/mL

PRT124 (ITDRCSPNMCEHDGRCYQSWDDFICYCELTGYKGETCH; listed as Homo sapiens)
MIC [1]: 12.5 µg/mL | MIC (μg/mL) E. coli BL21 [2, 12]: 50 µg/mL | MIC (μg/mL) P. aeruginosa [3, 13]: 12.5 µg/mL | MIC (μg/mL) K. pneumonia [4, 14]: 50 µg/mL | MIC (μg/mL) E. cloacae [5, 15]: 12.5 µg/mL | MIC (μg/mL) A. hydrophila [6, 16]: 12.5 µg/mL | MIC (μg/mL) C. diversus [7, 17]: 12.5 µg/mL | MIC (μg/mL) M. catarrhalis [8, 18]: 12.5 µg/mL | MIC (μg/mL) P. mirabilis [9, 19]: 12.5 µg/mL | MIC (μg/mL) P. vulgaris [10, 20]: 12.5 µg/mL | MIC (μg/mL) S. marcescens [11, 21]: 12.5 µg/mL

PRT646 (DIDECTQVQHLCSQGRCENTEGSFLCICPAGFMASEEGTNCI; listed as Homo sapiens)
MIC [1]: 12.5 µg/mL | MIC E. coli BL21 ([2]; 96-well plate, 37° C., 10 h): 12.5 µg/mL | MIC P. aeruginosa ([3]; 96-well plate, 37° C., 10 h): 12.5 µg/mL | MIC K. pneumonia ([4]; 96-well plate, 37° C., 10 h): 12.5 µg/mL | MIC E. cloacae ([5]; 96-well plate, 37° C., 10 h): 12.5 µg/mL | MIC A. hydrophila ([6]; 96-well plate, 37° C., 10 h): 25 µg/mL | MIC C. diversus ([7]; 96-well plate, 37° C., 10 h): 50 µg/mL | MIC M. catarrhalis ([8]; 96-well plate, 37° C., 10 h): 25 µg/mL | MIC P. mirabilis ([9]; 96-well plate, 37° C., 10 h): 12.5 µg/mL | MIC P. vulgaris ([10]; 96-well plate, 37° C., 10 h): 25 µg/mL | MIC S. marcescens ([11]; 96-well plate, 37° C., 10 h): 50 µg/mL

— patent US9833497B2, “Human originated EGF domain proteins and use of the same” (CHENGDU SOURCEBIO LIMITED-LIABILITY COMPANY, priority 2013, dated 2017)
